Columns and labels:
Type in all cases: in vivo
[1] = test system: ducksalad (Heteranthera limosa); experiment: Test B flooded paddy test, visual plant response rating 0-100; conditions: 250 g ai/ha, Flood, applied to paddy water, evaluated after 13 days
Outline: (§1)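 In this flooded assay, 2-leaf seedlings received compound through the water layer, kept at 3 cm over the soil. Plants were held 13 days in a greenhouse and then visually compared with control pots.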

rice (Oryza sativa) = experiment: as above; conditions: 250 g ai/ha, Flood, applied to paddy water, evaluated after 13 days
Outline: as §1

[2] = test system: barnyardgrass (Echinochloa crusgalli); experiment: as above; conditions: 250 g ai/ha, Flood, applied to paddy water, evaluated after 13 days
Outline: as §1

[3] = test system: sedge, umbrella (small-flower umbrella sedge, Cyperus difformis); experiment: as above; conditions: 250 g ai/ha, Flood, applied to paddy water, evaluated after 13 days
Outline: as §1

kochia (Bassia scoparia) [4] = experiment: Test A postemergence application, visual injury rating 0-100; conditions: 10 days
Outline: (§2)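 Greenhouse test: loam/sand pots received a surfactant-containing formulation, as a preemergence directed soil spray or a postemergence spray on young plants. Injury was judged visually at day 10 relative to untreated controls.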

[5] = test system: green foxtail (Setaria viridis); experiment: as above; conditions: 10 days
Outline: as §2

soybean (Glycine max) [6] = experiment: as above; conditions: 10 days
Outline: as §2

[7] = test system: oat, wild (wild oat, Avena fatua); experiment: as above; conditions: 10 days
Outline: as §2

[8] = test system: horseweed (Erigeron canadensis); experiment: as above; conditions: 10 days
Outline: as §2

[9] = test system: barnyardgrass (Echinochloa crus-galli); experiment: as above; conditions: 10 days
Outline: as §2

corn (Zea mays) [10] = experiment: as above; conditions: 10 days
Outline: as §2

[11] = test system: ryegrass, Italian (italian ryegrass, Lolium multiflorum); experiment: as above; conditions: 10 days
Outline: as §2

[12] = test system: ragweed (common ragweed, Ambrosia artemisiifolia); experiment: as above; conditions: 10 days
Outline: as §2

[13] = test system: galium (catchweed bedstraw, Galium aparine); experiment: as above; conditions: 10 days
Outline: as §2

[14] = test system: palmer (palmer amaranth, palmer pigweed, Amaranthus palmeri); experiment: as above; conditions: 10 days
Outline: as §2

[15] = test system: blackgrass (Alopecurus myosuroides); experiment: as above; conditions: 10 days
Outline: as §2

[16] = test system: wheat (Triticum aestivum); experiment: as above; conditions: 10 days
Outline: as §2

kochia (Bassia scoparia) [17] = experiment: Test A preemergence soil spray, visual injury rating 0-100; conditions: 10 days, 0 = no effect, 100 = complete control
Outline: as §2

[18] = test system: green foxtail (Setaria viridis); experiment: as above; conditions: 10 days, 0 = no effect, 100 = complete control
Outline: as §2

soybean (Glycine max) [19] = experiment: as above; conditions: 10 days, 0 = no effect, 100 = complete control
Outline: as §2

[20] = test system: oat, wild (wild oat, Avena fatua); experiment: as above; conditions: 10 days, 0 = no effect, 100 = complete control
Outline: as §2

[21] = test system: barnyardgrass (Echinochloa crus-galli); experiment: as above; conditions: 10 days, 0 = no effect, 100 = complete control
Outline: as §2

corn (Zea mays) [22] = experiment: as above; conditions: 10 days, 0 = no effect, 100 = complete control
Outline: as §2

[23] = test system: ryegrass, Italian (italian ryegrass, Lolium multiflorum); experiment: as above; conditions: 10 days, 0 = no effect, 100 = complete control
Outline: as §2

[24] = test system: ragweed (common ragweed, Ambrosia artemisiifolia); experiment: as above; conditions: 10 days, 0 = no effect, 100 = complete control
Outline: as §2

[25] = test system: palmer (palmer amaranth, palmer pigweed, Amaranthus palmeri); experiment: as above; conditions: 10 days, 0 = no effect, 100 = complete control
Outline: as §2

[26] = test system: blackgrass (Alopecurus myosuroides); experiment: as above; conditions: 10 days, 0 = no effect, 100 = complete control
Outline: as §2

[27] = test system: wheat (Triticum aestivum); experiment: as above; conditions: 10 days, 0 = no effect, 100 = complete control
Outline: as §2

[28] = 31 g ai/ha, postemergence, 0 = no effect, 100 = complete control
[29] = Postemergence, 125 g ai/ha, 0 is no effect, 100 is complete control

CC1(C(=O)NC2CCC(C(=O)NS(C)(=O)=O)C2)CN(c2cc(F)cc(F)c2)C(=O)O1 (stereo not shown) [Compound 13]
10: Oat, Wild plant response rating (0-100) [7, 28] | Barnyardgrass plant response rating (0-100) [9, 28] | Amaranth, Palmer plant response rating (0-100) [14, 28] | Blackgrass plant response rating (0-100) [15, 28]
40: Ragweed plant response rating (0-100) ([24]; 31 g ai/ha)
50: Kochia plant response rating (0 to 100 scale) (kochia (Bassia scoparia) [4]; [29]) | Foxtail, Green plant response rating (0 to 100 scale) [5, 29] | Soybean plant response rating (0 to 100 scale) (soybean (Glycine max) [6]; [29]) | Oat, Wild plant response rating (0 to 100 scale) [7, 29] | Wheat plant response rating (0-100) [16, 28] | Foxtail, Green plant response rating (0 to 100 scale) ([18]; 125 g ai/ha) | Blackgrass plant response rating (0 to 100 scale) ([26]; 125 g ai/ha)
20: Horseweed plant response rating (0 to 100 scale) [8, 29] | Ryegrass, Italian plant response rating (0-100) [11, 28] | Ragweed plant response rating (0 to 100 scale) [12, 29] | Oat, Wild plant response rating (0 to 100 scale) ([20]; 125 g ai/ha) | Barnyardgrass plant response rating (0 to 100 scale) ([21]; 125 g ai/ha) | Ryegrass, Italian plant response rating (0-100) ([23]; 31 g ai/ha) | Ragweed plant response rating (0 to 100 scale) ([24]; 125 g ai/ha) | Blackgrass plant response rating (0-100) ([26]; 31 g ai/ha)
80: Wheat plant response rating (0 to 100 scale) ([27]; 125 g ai/ha)
60: Blackgrass plant response rating (0 to 100 scale) [15, 29]
30: Corn plant response rating (0 to 100 scale) (corn (Zea mays) [10]; [29])
70: Barnyardgrass plant response rating (0 to 100 scale) [9, 29] | Ryegrass, Italian plant response rating (0 to 100 scale) [11, 29] | Galium plant response rating (0 to 100 scale) [13, 29] | Wheat plant response rating (0 to 100 scale) [16, 29]
0: Plant response rating, Ducksalad (0 to 100 scale, 0 is no effect and 100 is complete control) [1] | Plant response rating, Rice (0 to 100 scale, 0 is no effect and 100 is complete control) (rice (Oryza sativa)) | Plant response rating, Barnyardgrass (0 to 100 scale, 0 is no effect and 100 is complete control) [2] | Plant response rating, Sedge, Umbrella (0 to 100 scale, 0 is no effect and 100 is complete control) [3] | Kochia plant response rating (0-100) (kochia (Bassia scoparia) [4]; [28]) | Foxtail, Green plant response rating (0-100) [5, 28] | Soybean plant response rating (0-100) (soybean (Glycine max) [6]; [28]) | Horseweed plant response rating (0-100) [8, 28] | Corn plant response rating (0-100) (corn (Zea mays) [10]; [28]) | Ragweed plant response rating (0-100) [12, 28] | Galium plant response rating (0-100) [13, 28] | Kochia plant response rating (0-100) (kochia (Bassia scoparia) [17]; 31 g ai/ha) | Kochia plant response rating (0 to 100 scale) (kochia (Bassia scoparia) [17]; 125 g ai/ha) | Foxtail, Green plant response rating (0-100) ([18]; 31 g ai/ha) | Soybean plant response rating (0-100) (soybean (Glycine max) [19]; 31 g ai/ha) | Soybean plant response rating (0 to 100 scale) (soybean (Glycine max) [19]; 125 g ai/ha) | Oat, Wild plant response rating (0-100) ([20]; 31 g ai/ha) | Barnyardgrass plant response rating (0-100) ([21]; 31 g ai/ha) | Corn plant response rating (0-100) (corn (Zea mays) [22]; 31 g ai/ha) | Corn plant response rating (0 to 100 scale) (corn (Zea mays) [22]; 125 g ai/ha) | Amaranth, Palmer plant response rating (0-100) ([25]; 31 g ai/ha) | Amaranth, Palmer plant response rating (0 to 100 scale) ([25]; 125 g ai/ha) | Wheat plant response rating (0-100) ([27]; 31 g ai/ha)
90: Amaranth, Palmer / Pigweed, Palmer plant response rating (0 to 100 scale) [14, 29] | Ryegrass, Italian plant response rating (0 to 100 scale) ([23]; 125 g ai/ha)
